Results published in PMC3253173 (Free radical biology & medicine, 2011).

Target: T1, gp91phox (Homo sapiens, UniProt P04839)
T1 sequence (P04839 2-570): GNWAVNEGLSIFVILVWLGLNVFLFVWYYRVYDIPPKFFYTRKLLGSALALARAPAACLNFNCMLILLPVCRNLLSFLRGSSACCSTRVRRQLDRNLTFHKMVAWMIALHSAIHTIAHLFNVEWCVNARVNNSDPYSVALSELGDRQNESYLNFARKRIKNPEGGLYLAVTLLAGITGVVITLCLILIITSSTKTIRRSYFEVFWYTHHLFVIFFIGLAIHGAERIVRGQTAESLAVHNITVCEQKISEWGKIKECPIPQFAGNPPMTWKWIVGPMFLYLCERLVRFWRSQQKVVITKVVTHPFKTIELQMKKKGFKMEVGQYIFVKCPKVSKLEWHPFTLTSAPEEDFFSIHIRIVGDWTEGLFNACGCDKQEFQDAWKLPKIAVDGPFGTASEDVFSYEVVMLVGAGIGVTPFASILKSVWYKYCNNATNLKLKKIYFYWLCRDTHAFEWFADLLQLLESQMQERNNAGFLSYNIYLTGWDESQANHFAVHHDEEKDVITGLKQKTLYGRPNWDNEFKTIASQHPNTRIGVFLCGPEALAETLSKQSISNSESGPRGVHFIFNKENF
T1 sequence (P13498 2-195 partner): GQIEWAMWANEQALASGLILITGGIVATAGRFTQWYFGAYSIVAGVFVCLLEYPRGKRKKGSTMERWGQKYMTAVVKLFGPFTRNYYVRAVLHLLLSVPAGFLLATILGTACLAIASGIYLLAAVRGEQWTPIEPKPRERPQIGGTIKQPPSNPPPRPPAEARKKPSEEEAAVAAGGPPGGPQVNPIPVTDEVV
Test: saturation radioligand binding on COS-cytob558 membranes

C=C(C)[C@H]1Cc2c(ccc3c2O[C@@H]2COc4cc(OC)c(OC)cc4[C@@H]2C3=O)O1 [rotenone]
Kd: 21.2 ± 3.47 nM
